Among the test systems are EKVX; 786-0; KM12; SK-OV-3; CCRF-CEM; K562; MOLT-4; SNB-75; HT-29; COLO 205; NCI-H23; SK-MEL-28; LXFL 529; OVCAR-5; HCT-15; NCI-H226; NCI-H522; Hs-578T; MDA-MB-435.
What all share (assay): NCI anticancer screen, dose series, 48 h

SMILES strings stand for the structures.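 Exposure lasted 48 hours, with cells grown in 96-well plates and compounds tested at five concentrations. Here, GI50 denotes the concentration required for 50% inhibition of growth.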 The source made the active and inactive calls. Cut-off read from the data, not from the text of the source: active = GI50 up to about 1.1 µM and inactive = higher.

As for `Cc1cc2c(cc1C)[n+]([O-])c(C(=O)C/C(=N/OCCCc1ccccc1)C(=O)Nc1cc(Cl)ccc1Cl)c(C)[n+]2[O-]`, the GI50 in the assay on EKVX is > 100 µM (inactive); in the assay with 786-0, > 100 µM (inactive); in the assay with KM12, > 100 µM (inactive); in the assay with SK-OV-3 it was > 100 µM (inactive); in the assay on CCRF-CEM, 33.3 µM (inactive); in the assay on K562, > 100 µM (inactive). Also, the GI50 with MOLT-4 was 22.9 µM (inactive); in the assay with SNB-75 it was > 100 µM (inactive); in the assay with HT-29 it was > 100 µM (inactive); in the assay with COLO 205, > 100 µM (inactive); in the assay with NCI-H23 it was > 100 µM (inactive); in the assay with SK-MEL-28, > 100 µM (inactive). Further, the GI50 with LXFL 529 was > 100 µM (inactive); in the assay with OVCAR-5 it was > 100 µM (inactive); with HCT-15 it was greater than 100 µM; with NCI-H226, > 100 µM (inactive); with NCI-H522, > 100 µM (inactive).
Consider `CC(=O)OCCOCn1c2ccccc2c2c3c(c4c5ccccc5n(COCCOC(C)=O)c4c21)C(=O)N(Cc1ccccc1)C3=O`, for which the GI50 in the assay on EKVX, in the assay with 786-0, in the assay on SK-OV-3, in the assay on CCRF-CEM, in the assay on K562 and in the assay with MOLT-4 was > 100 µM (inactive) each time. Further, the GI50 in the assay with SNB-75 was 76.7 µM (inactive); in the assay on HT-29 it was > 100 µM (inactive); in the assay on COLO 205, > 100 µM (inactive); in the assay with NCI-H23, > 100 µM (inactive); in the assay on SK-MEL-28, > 100 µM (inactive); in the assay on LXFL 529, > 100 µM (inactive). Further, the GI50 with OVCAR-5 was > 100 µM (inactive); in the assay on HCT-15, greater than 100 µM; in the assay on NCI-H226, > 100 µM (inactive).
On to `Cc1cn(C2C=CC(=O)C(C)O2)c(=O)[nH]c1=O` (centres undefined), for which the GI50 was 18 µM (inactive) in the assay with 786-0; 16.1 µM (inactive) with KM12; 33.8 µM (inactive) in the assay on SK-OV-3; 6.07 µM (inactive) with CCRF-CEM; 10.6 µM (inactive) in the assay on K562; 18 µM (inactive) with MOLT-4. For the same compound, the GI50 in the assay with SNB-75 was 15.5 µM (inactive); in the assay on HT-29 it was 17.1 µM (inactive); in the assay with COLO 205, 17.5 µM (inactive); in the assay with NCI-H23 it was 18.1 µM (inactive); in the assay on SK-MEL-28, 14.9 µM (inactive); in the assay on LXFL 529 it was 14.8 µM (inactive). The GI50 in the assay on NCI-H226 is 19.5 µM (inactive); with NCI-H522, 16.6 µM (inactive).
For `COC1OC(CBr)C(OC(=O)c2ccccc2)C(OS(=O)(=O)c2ccc(C)cc2)C1Br` (centres undefined), the GI50 in the assay on EKVX was > 100 µM (inactive); with 786-0 it was > 100 µM (inactive); in the assay with KM12 it was > 100 µM (inactive); in the assay with SK-OV-3, > 10 µM (inactive); in the assay on CCRF-CEM it was > 100 µM (inactive); with K562, > 100 µM (inactive). Besides, the GI50 in the assay with MOLT-4, in the assay with HT-29, in the assay on COLO 205, with NCI-H23, with SK-MEL-28 and in the assay on LXFL 529 was > 100 µM (inactive) each time. Further, the GI50 is greater than 100 µM with HCT-15 and > 100 µM (inactive) in the assay on NCI-H522.
As for `CCc1ccccc1NC(=O)C(=O)C(C#N)c1c(Cl)cccc1Cl` (centres undefined), the GI50 in the assay with EKVX, in the assay with 786-0, with KM12, in the assay with SK-OV-3, with CCRF-CEM and in the assay with K562 was > 100 µM (inactive) throughout. The GI50 in the assay with MOLT-4, in the assay on SNB-75, with HT-29, in the assay on NCI-H23, in the assay on SK-MEL-28 and in the assay with LXFL 529 was > 100 µM (inactive) throughout. In addition, the GI50 was greater than 100 µM in the assay with HCT-15, > 100 µM (inactive) in the assay on NCI-H226 and > 100 µM (inactive) in the assay on NCI-H522.
As for `CC(=O)O[C@@H]1[C@H](OC2CCCCC2(c2ccccc2)c2ccccc2)O[N+]([O-])=CC12CCCCC2` (some centres undefined), the GI50 in the assay with EKVX is 17.9 µM (inactive); in the assay on 786-0, 13.4 µM (inactive); in the assay on KM12 it was 17.2 µM (inactive); with SK-OV-3, 13.4 µM (inactive); with CCRF-CEM, 0.17 µM (active); in the assay on K562, 54.2 µM (inactive). The GI50 in the assay with MOLT-4 was 52 µM (inactive); in the assay with SNB-75, 15.9 µM (inactive); in the assay on HT-29, 18.6 µM (inactive); with COLO 205, 16.4 µM (inactive); with NCI-H23, 10.2 µM (inactive); in the assay with Hs-578T, 19.2 µM (inactive). The GI50 in the assay on SK-MEL-28 was 13.8 µM (inactive); with MDA-MB-435 it was 15.6 µM (inactive); in the assay with OVCAR-5, 15.8 µM (inactive); in the assay on HCT-15, 16 µM; in the assay on NCI-H226, 14.1 µM (inactive); in the assay with NCI-H522 it was 18.6 µM (inactive).
Turning to `COc1ccc2/c(=C/c3ccc(N(C)C)cc3)c3cc(-c4ccccc4)[n+](C)n3c2c1`, the GI50 in the assay on EKVX was 0.817 µM (active); with 786-0, 0.161 µM (active); in the assay with KM12, 0.192 µM (active); in the assay with SK-OV-3, 0.282 µM (active); with CCRF-CEM, 0.395 µM (active); in the assay on K562 it was 0.057 µM (active). Moreover, the GI50 is 0.18 µM (active) with MOLT-4; 0.285 µM (active) in the assay with SNB-75; 0.104 µM (active) in the assay on HT-29; 0.0264 µM (active) with COLO 205; 0.158 µM (active) with NCI-H23; 0.142 µM (active) in the assay with Hs-578T. The GI50 in the assay with SK-MEL-28 was 0.164 µM (active); in the assay with MDA-MB-435, 0.0875 µM (active); in the assay with OVCAR-5 it was 0.52 µM (active); in the assay with HCT-15, 1 µM; in the assay on NCI-H226, 0.265 µM (active); with NCI-H522, 0.153 µM (active).
Regarding `CC(=O)OCC(OC(C)=O)C(OC(C)=O)C(OC(C)=O)C(/C=N\Nc1nc2ccccc2c(=O)[nH]1)OC(C)=O` (centres undefined), the GI50 in the assay on EKVX is 54.7 µM (inactive); in the assay on 786-0 it was > 100 µM (inactive); with KM12 it was 23.6 µM (inactive); in the assay on SK-OV-3 it was > 100 µM (inactive); in the assay with CCRF-CEM it was > 100 µM (inactive); in the assay with K562, > 100 µM (inactive). Besides, the GI50 in the assay on MOLT-4 was > 100 µM (inactive); in the assay with SNB-75, 27.6 µM (inactive); with HT-29, > 100 µM (inactive); with COLO 205, > 100 µM (inactive); in the assay on NCI-H23 it was > 100 µM (inactive); with Hs-578T it was > 100 µM (inactive). In addition, the GI50 in the assay with SK-MEL-28 is > 100 µM (inactive); in the assay with MDA-MB-435 it was > 100 µM (inactive); with OVCAR-5 it was > 100 µM (inactive); in the assay with HCT-15, greater than 100 µM; with NCI-H226 it was > 100 µM (inactive); with NCI-H522 it was > 100 µM (inactive).
Take `COc1cccc(C[C@H]2COC(=O)[C@]2(O)Cc2cccc(OC)c2)c1`: the GI50 is 26.5 µM (inactive) in the assay on EKVX; > 100 µM (inactive) in the assay with 786-0; 91.2 µM (inactive) in the assay on KM12; > 100 µM (inactive) in the assay on SK-OV-3; > 100 µM (inactive) in the assay with CCRF-CEM; > 100 µM (inactive) in the assay with K562. Moreover, the GI50 in the assay on MOLT-4 is 53.1 µM (inactive); with SNB-75 it was > 100 µM (inactive); in the assay on HT-29, > 100 µM (inactive); with COLO 205 it was > 100 µM (inactive); in the assay on NCI-H23, > 100 µM (inactive); with Hs-578T it was > 100 µM (inactive). Besides, the GI50 was > 100 µM (inactive) in the assay with SK-MEL-28; > 100 µM (inactive) with MDA-MB-435; > 100 µM (inactive) in the assay on OVCAR-5; greater than 100 µM with HCT-15; > 100 µM (inactive) in the assay with NCI-H226; 55.7 µM (inactive) in the assay on NCI-H522.
For `O=C1c2c(c3c4ccccc4n4c3c3c2c2ccccc2n3C/C=C\C4)C(=O)N1Cc1ccccc1`, the GI50 in the assay on EKVX, in the assay with 786-0, with KM12, in the assay with SK-OV-3, with CCRF-CEM and in the assay on K562 was > 100 µM (inactive) in each case. In addition, the GI50 was > 100 µM (inactive) in the assay with MOLT-4; 30.2 µM (inactive) with SNB-75; > 100 µM (inactive) with HT-29; > 100 µM (inactive) with COLO 205; > 100 µM (inactive) with NCI-H23; > 100 µM (inactive) with SK-MEL-28. In addition, the GI50 in the assay with LXFL 529 is > 100 µM (inactive); in the assay with OVCAR-5, > 100 µM (inactive); in the assay with HCT-15, greater than 100 µM; with NCI-H226, > 100 µM (inactive); with NCI-H522, > 100 µM (inactive).
Consider `COc1ccc(S(=O)(=O)Nc2ccccc2C(=O)O)cc1`, for which the GI50 with EKVX, in the assay with 786-0, in the assay on KM12, in the assay on SK-OV-3, in the assay on CCRF-CEM and with K562 was > 100 µM (inactive) throughout. The GI50 in the assay on MOLT-4 was > 100 µM (inactive); in the assay on SNB-75 it was 68.1 µM (inactive); with HT-29 it was > 100 µM (inactive); in the assay on COLO 205, > 100 µM (inactive); in the assay with NCI-H23, > 100 µM (inactive); with SK-MEL-28, > 100 µM (inactive). The GI50 is > 100 µM (inactive) in the assay with LXFL 529; > 100 µM (inactive) with OVCAR-5; greater than 100 µM in the assay with HCT-15; > 100 µM (inactive) in the assay with NCI-H226; > 100 µM (inactive) with NCI-H522.
Regarding `CCOC(=O)C1=C(C)NC(=S)NC1c1cccc(O)c1` (centres undefined) [MONASTROL], the GI50 in the assay on EKVX was 62.7 µM (inactive); in the assay on 786-0 it was 57.9 µM (inactive); with KM12 it was 35 µM (inactive); in the assay on SK-OV-3, 57.8 µM (inactive); with CCRF-CEM, 34.7 µM (inactive); with K562, 32.7 µM (inactive). Further, the GI50 in the assay on MOLT-4 is 33.6 µM (inactive); in the assay on SNB-75 it was 37.2 µM (inactive); in the assay with HT-29, > 86.3 µM (inactive); with COLO 205, 31.6 µM (inactive); in the assay with NCI-H23, 59.8 µM (inactive); with Hs-578T, 45.7 µM (inactive). Also, the GI50 in the assay on SK-MEL-28 is 81.5 µM (inactive); with MDA-MB-435, 17.2 µM (inactive); with OVCAR-5, 76.6 µM (inactive); with HCT-15 it was 39.4 µM; in the assay with NCI-H226, 55 µM (inactive); in the assay with NCI-H522, 30.3 µM (inactive).

(Values after ChEMBL document CHEMBL1201862, “PubChem BioAssay data set” (2004).)
